What was measured:
Format in all cases: functional
DU-145 = test: Growth inhibition of human DU145 cells incubated for 48 hrs by sulforhodamine B assay; conditions: DU-145, 48 h
IGROV-1 = test: Growth inhibition of human IGROV1 cells incubated for 48 hrs by sulforhodamine B assay; conditions: IGROV-1, 48 h
LOX IMVI = test: Growth inhibition of human LOXIMVI cells incubated for 48 hrs by sulforhodamine B assay
NCI-H23 = test: Growth inhibition of human NCI-H23 cells incubated for 48 hrs by sulforhodamine B assay; conditions: NCI-H23, 48 h
ACHN = test: Growth inhibition of human ACHN cells incubated for 48 hrs by sulforhodamine B assay
CAKI-1 = test: Growth inhibition of human Caki1 cells incubated for 48 hrs by sulforhodamine B assay; conditions: CAKI-1, 48 h
OVCAR-4 = test: Growth inhibition of human OVCAR4 cells incubated for 48 hrs by sulforhodamine B assay; conditions: OVCAR-4, 48 h
PC-3 = test: Growth inhibition of human PC3 cells incubated for 48 hrs by sulforhodamine B assay; conditions: PC-3, 48 h
OVCAR-3 = test: Growth inhibition of human OVCAR3 cells incubated for 48 hrs by sulforhodamine B assay; conditions: OVCAR-3, 48 h
SNB-19 = test: Growth inhibition of human SNB19 cells incubated for 48 hrs by sulforhodamine B assay; conditions: SNB-19, 48 h
SK-MEL-5 = test: Growth inhibition of human SK-MEL-5 cells incubated for 48 hrs by sulforhodamine B assay; conditions: SK-MEL-5, 48 h
SN12C = test: Growth inhibition of human SN12C cells incubated for 48 hrs by sulforhodamine B assay
HCT-15 = test: Growth inhibition of human HCT15 cells incubated for 48 hrs by sulforhodamine B assay; conditions: HCT-15, 48 h
MDA-MB-435 = test: Growth inhibition of human MDA-MB-435 cells incubated for 48 hrs by sulforhodamine B assay; conditions: MDA-MB-435, 48 h
786-0 = test: Growth inhibition of human 786-0 cells incubated for 48 hrs by sulforhodamine B assay; conditions: 786-0, 48 h
BT-549 = test: Growth inhibition of human BT549 cells incubated for 48 hrs by sulforhodamine B assay; conditions: BT-549, 48 h
UACC-257 = test: Growth inhibition of human UACC257 cells incubated for 48 hrs by sulforhodamine B assay; conditions: UACC-257, 48 h
A498 = test: Growth inhibition of human A498 cells incubated for 48 hrs by sulforhodamine B assay; conditions: A498, 48 h
OVCAR-8 = test: Growth inhibition of human OVCAR8 cells incubated for 48 hrs by sulforhodamine B assay; conditions: OVCAR-8, 48 h
MDA-MB-231 = test: Growth inhibition of human MDA-MB-231 cells incubated for 48 hrs by sulforhodamine B assay; conditions: MDA-MB-231, 48 h
SK-MEL-28 = test: Growth inhibition of human SK-MEL-28 cells incubated for 48 hrs by sulforhodamine B assay; conditions: SK-MEL-28, 48 h
Malme-3M = test: Growth inhibition of human MALME-3M cells incubated for 48 hrs by sulforhodamine B assay
T47D = test: Growth inhibition of human T47D cells incubated for 48 hrs by sulforhodamine B assay
A549 = test: Growth inhibition of human A549/ATCC cells incubated for 48 hrs by sulforhodamine B assay; conditions: A549, 48 h
SNB-75 = test: Growth inhibition of human SNB75 cells incubated for 48 hrs by sulforhodamine B assay; conditions: SNB-75, 48 h
SF-539 = test: Growth inhibition of human SF539 cells incubated for 48 hrs by sulforhodamine B assay; conditions: SF-539, 48 h
K562 = test: Growth inhibition of human K562 cells incubated for 48 hrs by sulforhodamine B assay; conditions: K562, 48 h
UO-31 = test: Growth inhibition of human UO31 cells incubated for 48 hrs by sulforhodamine B assay; conditions: UO-31, 48 h
SF-295 = test: Growth inhibition of human SF295 cells incubated for 48 hrs by sulforhodamine B assay; conditions: SF-295, 48 h
NCI/ADR-RES = test: Growth inhibition of human NCI/ADR-RES cells incubated for 48 hrs by sulforhodamine B assay
SK-MEL-2 = test: Growth inhibition of human SK-MEL-2 cells incubated for 48 hrs by sulforhodamine B assay; conditions: SK-MEL-2, 48 h
HOP-62 = test: Growth inhibition of human HOP62 cells incubated for 48 hrs by sulforhodamine B assay; conditions: HOP-62, 48 h
[1] = read-out: LC50 (the source's name)

Compound: COc1cc2cc(Oc3ccc(NC(=O)Nc4cc(C(F)(F)F)cc(C(F)(F)F)c4)cc3)c(C)nc2cc1OC
- GI50 (DU-145): 2.38 µM
- TGI (DU-145): 9.36 µM
- CC50 (DU-145; [1]): 8.06 µM
- GI50 (IGROV-1): 0.51 µM
- TGI (IGROV-1): 2.3 µM
- CC50 (IGROV-1; [1]): 8.68 µM
- GI50 (LOX IMVI): 1.44 µM
- TGI (LOX IMVI): 2.96 µM
- CC50 (LOX IMVI; [1]): 6.12 µM
- GI50 (NCI-H23): 0.639 to 0.64 µM
- TGI (NCI-H23): 3.55 µM
- CC50 (NCI-H23; [1]): 32.3 µM
- GI50 (ACHN): 0.39 µM
- TGI (ACHN): 1.69 µM
- CC50 (ACHN; [1]): 51.6 µM
- GI50 (CAKI-1): 1.41 µM
- TGI (CAKI-1): 5.1 µM
- CC50 (CAKI-1; [1]): 15.3 µM
- GI50 (OVCAR-4): 1.22 µM
- TGI (OVCAR-4): 4.44 µM
- CC50 (OVCAR-4; [1]): 80.2 µM
- GI50 (PC-3): 0.42 µM
- TGI (PC-3): 2.48 µM
- CC50 (PC-3; [1]): 32.4 µM
- GI50 (OVCAR-3): 0.488 to 0.49 µM
- TGI (OVCAR-3): 1.7 µM
- CC50 (OVCAR-3; [1]): 4.52 µM
- GI50 (SNB-19): 0.65 to 0.654 µM
- TGI (SNB-19): 2.16 µM
- CC50 (SNB-19; [1]): 5.73 µM
- GI50 (SK-MEL-5): 1.62 µM
- TGI (SK-MEL-5): 3.28 µM
- CC50 (SK-MEL-5; [1]): 6.67 µM
- GI50 (SN12C): 0.59 µM
- TGI (SN12C): 2.09 µM
- CC50 (SN12C; [1]): 32.5 µM
- GI50 (HCT-15): 0.668 to 0.67 µM
- LC50 (lethal concentration, 50% net cell kill) (HCT-15): 4.91 µM
- TGI (HCT-15): 2.04 µM
- GI50 (MDA-MB-435): 1.8 µM
- TGI (MDA-MB-435): 4.28 µM
- CC50 (MDA-MB-435; [1]): 11.6 µM
- GI50 (786-0): 1.61 µM
- TGI (786-0): 3.09 µM
- CC50 (786-0; [1]): 13.8 µM
- GI50 (BT-549): 1.75 µM
- TGI (BT-549): 3.76 µM
- CC50 (BT-549; [1]): 30.1 µM
- GI50 (UACC-257): 2.48 µM
- TGI (UACC-257): 5.49 µM
- CC50 (UACC-257; [1]): 20 µM
- GI50 (A498): 1.6 µM
- TGI (A498): 4.29 µM
- CC50 (A498; [1]): 7.98 µM
- GI50 (OVCAR-8): 1.63 µM
- TGI (OVCAR-8): 4.22 µM
- CC50 (OVCAR-8; [1]): > 100 µM
- GI50 (MDA-MB-231): 1.08 µM
- TGI (MDA-MB-231): 2.49 µM
- CC50 (MDA-MB-231; [1]): > 100 µM
- GI50 (SK-MEL-28): 1.19 µM
- TGI (SK-MEL-28): 3.09 µM
- CC50 (SK-MEL-28; [1]): 8.03 µM
- GI50 (Malme-3M): 1.1 µM
- TGI (Malme-3M): 3.46 µM
- CC50 (Malme-3M; [1]): 13.6 µM
- GI50 (T47D): 1.48 µM
- TGI (T47D): 5.67 µM
- CC50 (T47D; [1]): 29.1 µM
- GI50 (A549): 1.42 µM
- TGI (A549): 4.75 µM
- CC50 (A549; [1]): 22.5 µM
- GI50 (SNB-75): 1.73 µM
- TGI (SNB-75): 5.05 µM
- CC50 (SNB-75; [1]): > 100 µM
- GI50 (SF-539): 1.45 µM
- TGI (SF-539): 3.21 µM
- CC50 (SF-539; [1]): 7.11 µM
- GI50 (K562): 0.57 µM
- LC50 (concentration killing 50% of cells) (K562): 17 µM
- TGI (K562): 2.53 µM
- GI50 (UO-31): 0.266 to 0.27 µM
- TGI (UO-31): 1.65 µM
- CC50 (UO-31; [1]): 35.1 µM
- GI50 (SF-295): 0.48 to 0.481 µM
- TGI (SF-295): 1.94 µM
- CC50 (SF-295; [1]): 5.71 µM
- GI50 (NCI/ADR-RES): 1.27 µM
- TGI (NCI/ADR-RES): 3.44 µM
- CC50 (NCI/ADR-RES; [1]): 7.04 µM
- GI50 (SK-MEL-2): 1.82 µM
- TGI (SK-MEL-2): 4.24 µM
- CC50 (SK-MEL-2; [1]): 9.88 µM
- GI50 (HOP-62): 1.35 µM
- TGI (HOP-62): 2.88 µM
- CC50 (HOP-62; [1]): 6.15 µM

From ChEMBL document CHEMBL3994622, “Design and synthesis of new RAF kinase-inhibiting antiproliferative quinoline derivatives. Part 2: Diarylurea derivatives” (Eur J Med Chem, 2017)
